Experiments:
Conditions in all cases: exposure: 5-72 hpf
[1] = tested on: Danio rerio embryo (fli1:egfp); assay: body length at 72 hpf (µm); higher = longer body (less growth inhibition)
Method: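 Transgenic fli1:egfp zebrafish embryos (one per well, 384-well plate) exposed statically from 5 to 72 hpf at 28 °C to chemical (0.05-50 µM, 0.1% DMSO); at 72 hpf anesthetized and imaged on ImageXpress; body length of live, hatched, correctly oriented embryos measured by automated MetaXpress journal. Dead/unhatched/misoriented embryos have no value.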

[2] = tested on: Danio rerio embryo (fli1:egfp); assay: arterial (dorsal aorta) circulation score at 72 hpf (normalized DA-Max (arbitrary units)); higher = more circulation
Method: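 fli1:egfp zebrafish embryos exposed 5-72 hpf to chemical (0.05-50 µM, 0.1% DMSO); arterial circulation at 72 hpf quantified from stream acquisitions of the dorsal aorta by FFT-based analysis (DA-Max, normalized dorsal aorta signal); only concentrations passing survival/body-length criteria analyzed.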

[3] = tested on: Danio rerio embryo (fli1:egfp); assay: heart rate at 72 hpf (beats per minute); higher = faster heart rate
Method: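 fli1:egfp zebrafish embryos exposed 5-72 hpf to chemical (0.05-50 µM, 0.1% DMSO) in 384-well plates; heart rate at 72 hpf quantified from stream acquisitions by semi-automated MetaXpress journal (peak counting); only embryos in concentrations passing survival/body-length criteria analyzed.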

[4] = tested on: Danio rerio embryo (fli1:egfp); assay: intersegmental vessel area normalized to body length at 72 hpf (ISV area / body length (normalized units)); higher = more vessel area
Method: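 fli1:egfp zebrafish embryos exposed 5-72 hpf to chemical (0.05-50 µM, 0.1% DMSO); intersegmental vessel (ISV) eGFP area quantified by MetaXpress journal at 72 hpf and normalized to body length.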

[5] = tested on: Danio rerio embryo (fli1:egfp); assay: pericardial area at 72 hpf (image area units (not stated)); higher = larger pericardial area (edema)
Method: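 fli1:egfp zebrafish embryos exposed 5-72 hpf to chemical (0.05-50 µM, 0.1% DMSO); pericardial area at 72 hpf measured by semi-automated MetaXpress journal (increase indicates edema).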

CCN(Cc1c(F)cccc1Cl)c1c([N+](=O)[O-])cc(C(F)(F)F)cc1[N+](=O)[O-] [Flumetralin]
Conditions	arterial, [2]	body length at 72 hpf, [1]	heart rate at 72 hpf, [3]	intersegmental vessel area normalized, [4]
0.05 µM	16.7	3020	183	67.3
0.098 µM	16.1	3080	174	74.9
0.195 µM	16.8	3050	177	79.1
0.39 µM	15	3010	176	72.5
0.78 µM	15.4	2980	181	76.2
1.56 µM	15.1	2850	182	84
3.125 µM	–	2770	–	–
6.25 µM	–	2670	–	–
12.5 µM	–	2670	–	–
25 µM	–	2670	–	–
50 µM	–	2620	–	–

CCCCCOC(=O)COc1cc(N2C(=O)C3=C(CCCC3)C2=O)c(F)cc1Cl [Flumiclorac-pentyl]
Conditions	arterial, [2]	body length at 72 hpf, [1]	heart rate at 72 hpf, [3]	intersegmental vessel area normalized, [4]	pericardial area at 72 hpf, [5]
0.05 µM	11.7	3040	166	55.7	14500
0.098 µM	10.9	2980	159	66.5	15200
0.195 µM	10.3	2960	166	62.8	16200
0.39 µM	10.7	2950	175	66.4	15300
0.78 µM	9.99	3000	170	60.7	15200
1.56 µM	11.6	3000	178	62.7	16100
3.125 µM	11	2990	182	61.8	17000
6.25 µM	8.2	2960	185	65.1	16400
12.5 µM	8.36	3000	182	69.4	17700

C#CCN1C(=O)COc2cc(F)c(N3C(=O)C4=C(CCCC4)C3=O)cc21 [Flumioxazin]
Conditions	arterial, [2]	body length at 72 hpf, [1]	heart rate at 72 hpf, [3]	intersegmental vessel area normalized, [4]	pericardial area at 72 hpf, [5]
0.05 µM	6.76	3020	175	73.7	17000
0.098 µM	5.49	2970	169	74.8	17800
0.195 µM	5.79	3020	160	82.8	18200
0.39 µM	4.85	2920	155	68.9	19000
0.78 µM	5.18	3030	156	68.8	23000
1.56 µM	4.72	2960	164	74.8	18100
3.125 µM	4.39	3000	182	74	18700
6.25 µM	4.22	3000	169	69.6	19200
12.5 µM	4.91	2990	182	75.9	19300
25 µM	4.04	2920	166	86.4	17700
50 µM	6.16	2920	166	79	21100

CO/N=C(/C1=NOCCO1)c1ccccc1Oc1ncnc(Oc2ccccc2Cl)c1F [Fluoxastrobin]
Conditions	arterial, [2]	body length at 72 hpf, [1]	heart rate at 72 hpf, [3]	intersegmental vessel area normalized, [4]	pericardial area at 72 hpf, [5]
0.0061 µM	13.7	2970	182	70.3	12700
0.0122 µM	15	2930	189	71.6	14000
0.0244 µM	11.9	2900	188	76	13500
0.05 µM	15.2	2970	194	79.4	14300
0.098 µM	12.6	2980	198	82.8	14900
0.195 µM	16.2	2990	198	75.3	14200
0.39 µM	13.1	2970	194	77.9	15000
0.78 µM	13.9	2940	191	67.2	13900
1.56 µM	12.1	2910	177	80.3	17100
3.125 µM	6.76	3010	161	64.8	28800

COC(=O)N(C(=O)N1CO[C@@]2(C(=O)OC)Cc3cc(Cl)ccc3C2=N1)c1ccc(OC(F)(F)F)cc1 [Indoxacarb]
Conditions	arterial, [2]	body length at 72 hpf, [1]	heart rate at 72 hpf, [3]	intersegmental vessel area normalized, [4]	pericardial area at 72 hpf, [5]
0.05 µM	9.56	2980	169	81.5	14200
0.098 µM	10.3	3010	171	81.7	13400
0.195 µM	10.5	2970	176	85.7	15600
0.39 µM	8.96	2950	183	80.7	13200
0.78 µM	8.19	2990	185	80.1	14100
1.56 µM	10.8	2960	181	85.1	12300
3.125 µM	9.26	3010	194	83.8	12700
6.25 µM	10.5	3020	188	87.7	13000
12.5 µM	14.1	2900	181	70.6	14200
